Measurements published in ChEMBL document CHEMBL1201862, “PubChem BioAssay data set” (2004).
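48-hour exposure; five concentrations; linearly interpolated endpoints. At the GI50, growth is halved.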 Active and inactive are the calls of the source. Rule as the data show it: active = GI50 up to about 1.1 µM and inactive = higher.

How the values were obtained:
Assay in all cases: NCI-60 cell line screen, 48 h
[1] = system: RPMI-8226
[2] = system: NCI-H460
[3] = system: HL-60
[4] = system: HOP-92
[5] = system: NCI-H226
[6] = system: HCT-116
[7] = system: SK-MEL-5
[8] = system: SF-295
[9] = system: HOP-62
[10] = system: NCI-H522
[11] = system: SW-620
[12] = system: NCI/ADR-RES
[13] = system: SK-OV-3
[14] = system: RXF 393
[15] = system: NCI-H23
[16] = system: CAKI-1
[17] = system: OVCAR-5
[18] = system: LOX IMVI
[19] = system: MDA-MB-435
[20] = system: SF-539

| Compound | GI50 [1] | GI50 [2] | GI50 [3] | GI50 [4] | GI50 [5] | GI50 [6] | GI50 [7] | GI50 [8] | GI50 [9] | GI50 [10] | GI50 [11] | GI50 [12] | GI50 [13] | GI50 [14] | GI50 [15] | GI50 [16] | GI50 [17] | GI50 [18] | GI50 [19] | GI50 [20] |
| --- | --- | --- | --- | --- | --- | --- | --- | --- | --- | --- | --- | --- | --- | --- | --- | --- | --- | --- | --- | --- |
| COc1ccc(/N=N/C(=NNC(=O)c2ccc(C)cc2)c2ccc(N(C)C)cc2)cc1 | 17.5 µM (inactive) | 39.7 µM (inactive) | 2.32 µM (inactive) | 41.5 µM (inactive) | 39.8 µM (inactive) | 34.4 µM (inactive) | 27.2 µM (inactive) | 28.4 µM (inactive) | 49.1 µM (inactive) | 28.9 µM (inactive) | 56.8 µM (inactive) | 33.8 µM (inactive) | 31.8 µM (inactive) | 32 µM (inactive) | 26.4 µM (inactive) | > 91.8 µM (inactive) | > 85.9 µM (inactive) | 34.8 µM (inactive) | 20.1 µM (inactive) | > 100 µM (inactive) |
| [N-]=[N+]=C(C(=O)OCC#CCOC(=O)C(=[N+]=[N-])S(=O)(=O)c1ccccc1)S(=O)(=O)c1ccccc1 | > 10 µM (inactive) | > 10 µM (inactive) | > 10 µM (inactive) | > 10 µM (inactive) | > 10 µM (inactive) | > 10 µM (inactive) | > 10 µM (inactive) | > 10 µM (inactive) | > 10 µM (inactive) | > 10 µM (inactive) | > 10 µM (inactive) | > 10 µM (inactive) | > 10 µM (inactive) | > 10 µM (inactive) | > 10 µM (inactive) | > 10 µM (inactive) | > 10 µM (inactive) | > 10 µM (inactive) | > 10 µM (inactive) | > 10 µM (inactive) |
| Nc1nc(Sc2ccc([N+](=O)[O-])cn2)c2nc[nH]c2n1 | 14 µM (inactive) | 4.88 µM (inactive) | 10.7 µM (inactive) | 3.6 µM (inactive) | 12.6 µM (inactive) | 3.94 µM (inactive) | 14.4 µM (inactive) | 9.46 µM (inactive) | 4.6 µM (inactive) | 12.3 µM (inactive) | 18.2 µM (inactive) | 3.78 µM (inactive) | 3.95 µM (inactive) | 2.73 µM (inactive) | 8.05 µM (inactive) | 7.13 µM (inactive) | 3.47 µM (inactive) | 2.52 µM (inactive) | 4.79 µM (inactive) | 6.24 µM (inactive) |
| Cc1ccnc2[nH]c3ccccc3c(=O)c12 | 25.9 µM (inactive) | 19 µM (inactive) | 15.1 µM (inactive) | 41.6 µM (inactive) | 24.7 µM (inactive) | 16.6 µM (inactive) | 14 µM (inactive) | 35.5 µM (inactive) | 43.8 µM (inactive) | 15.2 µM (inactive) | 35.9 µM (inactive) | 28.6 µM (inactive) | 43.5 µM (inactive) | 15.6 µM (inactive) | 22.9 µM (inactive) | 8.41 µM (inactive) | 23.8 µM (inactive) | 19.5 µM (inactive) | 19.6 µM (inactive) | 17.9 µM (inactive) |
| Cc1ccc(C(=O)CC(O)(C(F)(F)F)C(F)(F)F)cc1[N+](=O)[O-] | 12.6 µM (inactive) | 5.78 µM (inactive) | 2.12 µM (inactive) | 9.4 µM (inactive) | 20.2 µM (inactive) | 5.3 µM (inactive) | 16.4 µM (inactive) | 7 µM (inactive) | 15.2 µM (inactive) | 0.331 µM (active) | 16.8 µM (inactive) | 16.3 µM (inactive) | 18.1 µM (inactive) | 13.8 µM (inactive) | 9.29 µM (inactive) | 2.36 µM (inactive) | 18 µM (inactive) | 2.07 µM (inactive) | 8.41 µM (inactive) | 17 µM (inactive) |
| CCCCc1c2c(c(C)c3c1C(=O)OC3)Oc1ccccc1O2 | 1.25 µM (inactive) | 0.369 µM (active) | 0.316 µM (active) | 10.2 µM (inactive) | 2.8 µM (inactive) | 0.565 µM (active) | 0.478 µM (active) | 0.467 µM (active) | 1.23 µM (inactive) | 0.217 µM (active) | 1.02 µM (active) | 0.382 µM (active) | 1.57 µM (inactive) | 0.975 µM (active) | 2.9 µM (inactive) | 5.74 µM (inactive) | > 27.5 µM (inactive) | 2.25 µM (inactive) | 0.173 µM (active) | 0.608 µM (active) |
| O=C(/C=C/c1ccc(O)c(O)c1)Oc1ccccc1 | 3.17 µM (inactive) | 19.2 µM (inactive) | 1.61 µM (inactive) | 14.9 µM (inactive) | 35.1 µM (inactive) | 9.71 µM (inactive) | 9.95 µM (inactive) | 19.5 µM (inactive) | 15.8 µM (inactive) | 0.304 µM (active) | 12.6 µM (inactive) | 11.2 µM (inactive) | 45.6 µM (inactive) | 8.71 µM (inactive) | 14.4 µM (inactive) | 5.85 µM (inactive) | 28.7 µM (inactive) | 4.9 µM (inactive) | 14.5 µM (inactive) | 10.6 µM (inactive) |
